Patent US7547697B2, “Alkyl-pyridazine derivatives as 11b-HSD1 inhibitors” (Hoffmann-La Roche Inc., priority 2006, dated 2009)

Molecular target: T1, human 11beta-HSD1 (Homo sapiens, UniProt P28845)
T1 construct: expressed in transfected cells; host or cells: HEK293 cells (ATCC CRL-1573), transient transfection with pcDNA3 construct; microsomal fraction used
Assay: Microsome assay (cortisone to cortisol conversion, ELISA detection)
Format: biochemical
Settings: microsomes from HEK293 cells transiently expressing human 11beta-HSD1; cortisone 50-200 nM, NADPH 1 mM, 60 min at 37° C.; read-out: h 11-beta-HSD 1 IC50
Method: The cDNA encoding the human 11beta-HSD1 protein was cloned into the expression vector pcDNA3 ([…]). This construct (for details see Alex Odermatt et al.; J Biol Chem., 1999, Vol. 274, Issue 40, 28762-28770) was used to transiently express the protein in HEK293 cells (ATCC number: CRL-1573, described in Graham, F. L., Smiley, J., Russell, W. C., Nairn, R.; (1977)) using lipofectamine. 48h after transfection cells were washed twice with ice-cold PBS (Phosphate buffered Saline). To 1 volume of cell suspension in PBS 2 volumes of ice-cold lysis buffer (50 mM Tris; pH 7.5; 1 mM EDTA; 100 mM NaCl) were added. The cells were lysed by Potter-homogenization (20 strokes). The resulting homogenate was sonicated with a tip sonicator (10% output; 2×30 sec.) and cleared by a low speed centrifugation (10 min×9000 g; 4° C.). The microsomal fraction was collected by a high speed centrifugation (60 min×110,000 g). […]
Microsomes isolated from HEK293 cells transiently expressing human 11beta-HSD1 (for details see above) were incubated in assay buffer (100 mM NaCl; 1 mM EDTA; 1 mM EGTA; 1 mM MgCl; 250 mM Sucrose; 20 mM Tris pH 7.4; Cortisone 50-200 nM and NADPH 1 mM) together with different concentrations of test substances. […] The amount of Cortisol produced in this assay was determined using a commercially available, ELISA-based Cortisol-detection kit (Distributed by Assay Design, Inc.). […]

T1 sequence (P28845 whole entry): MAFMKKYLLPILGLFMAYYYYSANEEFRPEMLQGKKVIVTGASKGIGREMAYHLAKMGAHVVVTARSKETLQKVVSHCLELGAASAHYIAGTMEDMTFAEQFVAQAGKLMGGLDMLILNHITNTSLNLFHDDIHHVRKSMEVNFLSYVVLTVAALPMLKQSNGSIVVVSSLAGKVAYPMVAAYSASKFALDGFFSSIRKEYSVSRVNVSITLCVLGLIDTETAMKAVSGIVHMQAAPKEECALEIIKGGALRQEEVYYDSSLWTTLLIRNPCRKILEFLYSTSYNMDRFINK

| IC50 [µM] | SMILES |
| --- | --- |
| 0.006 | CC(C)(C)Cc1cc2c(nn1)CCCCCC2 [Example 1, 3-(2,2-Dimethyl-propyl)-5,6,7,8,9,10-hexahydro-cycloocta[c]pyridazine] |
| 0.014 | CC(C)(C)Cc1cc2c(nn1)[C@@]1(C)CC[C@@H]2C1(C)C [Example 3, (1S,8R)-5-(2,2-Dimethyl-propyl)-1,11,11-trimethyl-3,4-diaza-tricyclo[6.2.1.0^2,7]undeca-2,4,6-triene] |
